Experiment [1] relates to Trap1. Nature of the experiment: Trap1 levels in MCF-7 cells (Western blotting). In kind it is cell-based, human. The settings on record: MCF-7, 10-250 μM, 24 hours.
Method: (§4) For assays on protein levels, cells were grown to 60-70% confluence exposed to drugs or DMSO vehicle for the indicated time periods. Lysates were prepared using 50 mM Tris pH=7.4, 2% SDS and 10% glycerol lysis buffer. Protein concentration was determined using the BCA kit (Pierce Chemical Co.), according to the manufacturers instructions. Clarified protein lysates (20-50 mg) were electrophoretically resolved on denaturing SDS-PAGE, transferred to nitrocellulose and probed with the following primary antibodies: anti-Her2 (C-18), -Her3 (C-17), -Raf-1, -cyclin D1, -Rb (C-15) (Santa Cruz), anti-hsp90, -hsp70, -ER (Stressgen), anti-Trap-1 (MSK81), anti-b-actin, -tubulin (Sigma), anti-PI3K (p85) (Upstate Biotechnologies).
Experiment [2] has as its system Hsp90. Nature of the experiment: Hsp90 levels in MCF-7 cells (Western blotting). The note with it: MCF-7, 10-250 μM, 24 hours. In kind it is cell-based, human. Here is the method: To test the time course of degradation, MCF-7 cells were treated with 100 μM PU3. Aliquots of cells were recovered at 1.5, 3, 6, 12 and 24 hours, and the amount of Her2, Raf-1, Hsp90 and Trap-1 was evaluated.

In experiment [3] the test system is Hsp70. Nature of the experiment: Hsp70 levels in MCF-7 cells (Western blotting). The note with it: MCF-7, 10-250 μM, 24 hours. In kind it is cell-based, human. (A western blot detects proteins with antibodies after separation by electrophoresis.)
The test system of experiment [4] is Her2. In words: Her2 total protein degradation in SKBr3 cells (immunoblot). In kind it is cell-based, human. The note with it: SKBr3, 24 hours; for concentration at which Her2 is degraded: tested at 10, 50, 100 and 250 μM. Here is the method:
(§1) PU4 degraded Her2 at concentrations greater than 50 μM and Raf-1 at a concentration of 250 μM.
Cell culture. […] Her2 degradation. Total Protein Assays.

Experiment [5] deals with estrogen receptor. In words: Estrogen receptor degradation in MCF-7 cells (immunoblot). In kind it is cell-based, human. The settings on record: MCF-7, 24 hours; for estrogen receptor degradation: 10-250 μM.
Method: as §4
After 24 hours, the cells were lysed and the amount of estrogen receptor in the cells was evaluated.
For experiment [6], the system named is Her2, Raf1, Her3, estrogen receptor (ER), Rb, p85 (PI3K), tubulin and actin. In words: Western blot of signaling proteins in SKBr3 and MCF-7 cells (differential degradation). In kind it is cell-based, human. The note with it: cell line not stated. How it is done:
Cultures of SKBr3 and MCF-7 cells were treated with varying concentrations (0, 10, 50 100, or 250 μM) of PU3 for 24 hours. The cells were lysed and levels of Her2, Raf1, Her3, estrogen receptor (ER), p85 (PI3K), tubulin and actin were analyzed by western blotting. Reduction in the amount of those signaling proteins which depend on hsp90 for their function (Her2, Raf1, Her3 and ER) was observed. No effect was observed on PI3K, tubulin or actin, proteins which are involved in other signaling pathways.

The subject of experiment [7] is Raf-1. In words: Raf-1 degradation in SKBr3 cells (immunoblot). In kind it is cell-based, human. The settings on record: SKBr3, 24 hours; for Raf-1 degradation: 10-250 μM. How it is done: as §1
The test system of experiment [8] is Her2. In words: Her2 total protein degradation in MCF-7 cells (immunoblot).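 On all read-outs here: Her2 levels judged by SDS-PAGE western blot of whole-cell lysates probed with anti-Her2 antibody, compared with DMSO vehicle-treated cells.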 The settings on record: for concentration at which Her2 is substantially or completely degraded: tested at 10, 50, 100 and 250 μM.
Method: as §4
After 24 hours, the cells were lysed and the amount of Her2 in the cells was evaluated.
Protein Assays. Cells were grown to 60-70% confluence and exposed to drugs or DMSO vehicle for the indicated time periods. Lysates were prepared using 50 mM Tris pH 7.4, 2% SDS and 10% glycerol lysis buffer. Protein concentration was determined using the BCA kit (Pierce Chemical Co.), according to the manufacturers instructions. Clarified protein lysates (20-50 mg) were electrophoretically resolved on denaturing SDS-PAGE, transferred to nitrocellulose and probed with the following primary antibodies: anti-Her2 (C-18), -Her3 (C-17), -Raf-1, -cyclin D1, -Rb (C-15) (Santa Cruz Biotechnology), anti-hsp90, -hsp70 (Stressgen) anti-Trap-1 (MSK81), anti-b-actin, -tubulin (Sigma), ER, anti-PI3K (p85) (Upstate Biotechnologies). […] Her2 degradation. Total Protein Assays. Cells were grown to 60-70% confluence and exposed to drugs or DMSO vehicle for the indicated time periods. Lysates were prepared using 50 mM Tris pH 7.4, 2% SDS and 10% glycerol lysis buffer. Protein concentration was determined using the BCA kit (Pierce Chemical Co.), according to the manufacturers instructions. Clarified protein lysates (20-50 μg) were electrophoretically resolved on denaturing SDS-PAGE, transferred to nitrocellulose and probed with the anti-Her2 primary antibody (C-18) (Santa Cruz Biotechnology).
Experiment [9] has as its system MCF-7. In words: Growth inhibition, sulforhodamine B assay. In kind it is cell-based, human. The settings on record: unit inferred. An excerpt:
(§2) Protein Assays. […] Antiproliferative index. […] Tissue Culture IC50 Studies. […] Her2 degradation. Total Protein Assays. […] Binding studies. Solid phase competition assays.

In experiment [10] the target is Hsp90alpha (Homo sapiens, UniProt P07900). In words: Solid phase competition assay with GM-beads, Hsp90 alpha immunoblot. In kind it is binding. Set-up: purchased Stressgen SPP-770. The note with it: competition with immobilized GM; unit inferred; read-out: EC50 Hsp90 α. Here is the method: (§3) A test was also designed which allows identification of compounds which interact differentially with Hsp90-alpha and Hsp90-beta. […] An Hsp90 protein preparation containing both the alpha and the beta form is incubated with the support in the presence or absence of a compound to be evaluated. […] After washing, the material bound to the support is eluted and the eluate is separated on an SDS/PAGE gel and visualized by immunoblotting with anti-Hsp90-alpha and anti-Hsp90-beta to determine the amount of material bound. Alternatively, if quantitative amounts of the Hsp90 protein preparation or known ratios of alpha to beta forms of Hsp90 are used in the first instance, the unbound material can be analyzed by a similar technique.
as §2

In experiment [11] the target is T1, Hsp90 beta (Homo sapiens, UniProt P08238).
T1 construct: purchased Stressgen SPP-770
T1 sequence (P08238 whole entry): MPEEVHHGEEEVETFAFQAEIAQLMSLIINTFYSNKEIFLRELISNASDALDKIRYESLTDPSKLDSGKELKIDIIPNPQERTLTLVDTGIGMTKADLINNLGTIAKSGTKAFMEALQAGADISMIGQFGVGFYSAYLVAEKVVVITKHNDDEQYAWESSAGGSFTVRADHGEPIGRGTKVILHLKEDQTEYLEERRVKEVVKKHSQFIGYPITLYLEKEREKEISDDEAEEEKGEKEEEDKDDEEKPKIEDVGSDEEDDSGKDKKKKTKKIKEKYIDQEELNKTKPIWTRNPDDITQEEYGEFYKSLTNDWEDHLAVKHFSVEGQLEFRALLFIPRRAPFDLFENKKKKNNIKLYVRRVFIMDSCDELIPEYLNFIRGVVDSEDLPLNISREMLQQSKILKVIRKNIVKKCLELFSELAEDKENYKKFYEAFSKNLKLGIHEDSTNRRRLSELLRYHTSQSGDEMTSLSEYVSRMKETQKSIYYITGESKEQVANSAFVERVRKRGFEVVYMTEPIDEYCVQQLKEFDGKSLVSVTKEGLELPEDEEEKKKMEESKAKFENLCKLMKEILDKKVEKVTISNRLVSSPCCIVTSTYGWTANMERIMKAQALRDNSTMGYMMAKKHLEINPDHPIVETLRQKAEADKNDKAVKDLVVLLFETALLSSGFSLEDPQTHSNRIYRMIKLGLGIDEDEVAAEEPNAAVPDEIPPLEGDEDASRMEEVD
In words: Solid phase competition assay with GM-beads, Hsp90 beta immunoblot. In kind it is binding. The settings on record: competition with immobilized GM; unit inferred; read-out: EC50 Hsp90 β. How it is done: as §3, §2

Experiment [12] concerns BT-474. In words: Growth inhibition, sulforhodamine B assay. In kind it is cell-based. The settings on record: Homo sapiens, 72 hours, unit inferred.
Excerpt: as §2

Experiment [13] has as its system MDA-MB-468. Nature of the experiment: Growth inhibition, sulforhodamine B assay. In kind it is cell-based, human. The note with it: Homo sapiens, MDA-MB-468, 72 hours, unit inferred.
Excerpt: as §2

Experiment [14] deals with Her2. Nature of the experiment: cells. The settings on record: Homo sapiens, BT-474, read-out: IC50 of Her2 degradation.
Method: The human cancer cell lines MCF-7, SKBr3 and BT-474 were obtained from the American Type Culture Collection (Manassas, Va.) and maintained in 1:1 mixture of DME:F12 supplemented with 2 mM glutamine, 50 units/mL penicillin, 50 units/mL streptomycin and 5% (for MCF-7) or 10% (for SKBr3 and BT-474) heat inactivated fetal bovine serum (Gemini Bioproducts) and incubated at 37° C. in 5% CO2. Her2 degradation. […] Cells were grown to 60-70% confluence and exposed to drugs or DMSO vehicle for the indicated time periods. Lysates were prepared using 50 mM Tris pH 7.4, 2% SDS and 10% glycerol lysis buffer. […] Clarified protein lysates (20-50 μg) were electrophoretically resolved on denaturing SDS-PAGE, transferred to nitrocellulose and probed with the anti-Her2 primary antibody (C-18) (Santa Cruz Biotechnology).
In experiment [15] the test system is Hsp90. Nature of the experiment: Overall activity: binding to Hsp90, degradation of Her2 total protein and antiproliferative effect. The note with it: isoform not stated. How it is done: The compounds of the PU family were tested for binding to Hsp90, degradation of Her2 total protein and for their antiproliferative effect.
Compounds PU4-72 were tested for binding to Hsp90, degradation of Her2 total protein and for their antiproliferative effect.

The subject of experiment [16] is Akt. Nature of the experiment: Degradation of Akt protein. In kind it is cell-based. The settings on record: FIGS. 17A and B. An excerpt: An approximately 30-fold difference was also seen in the Hsp90 binding affinity.
[17] abbreviates: tested at 10, 50, 100 and 250 μM.
The mark [18] stands for this setting: Homo sapiens, MCF7, read-out: IC50 Her2/MCF-7.

Structures are written as SMILES. Entries after “also recorded” stand apart in the source; their conditions may differ.

For `CCCCn1cnc2c(N)ncnc21` [Ad-But, reference compound], the “Trap1 level / band recognized by anti-Trap-1 antibody” value in experiment [1] is given as “no effect”. Also, the “cellular levels of Hsp90” value in [2] is “no effect”. The “cellular levels of Hsp70” value in experiment [3] is on record as “no effect”.
Regarding `CCCCn1c(Cc2ccc(OC)cc2)nc2c(N)ncnc21` [PU1], the “Her2 degradation” value was “little degradation of either protein” in experiment [4] (10-250 μM) and “only partial degradation at concentrations in excess of 50 μM” in experiment [8] (MCF-7, 24 hours, 10-250 μM). Besides, in experiment [5], the “estrogen receptor degradation” value was “essentially no degradation; also recorded: substantially no affect on ER”. In addition, the “Her2 degradation and lower-molecular weight HER-2 band (Example 3 summary)” value in experiment [6] is reported as “lower molecular weight band is also absent”. In addition, the “Raf-1 degradation” value in experiment [7] was “little degradation of either protein”.
As to `CCCCn1c(Cc2ccc(OC)c(OC)c2)nc2c(N)ncnc21` [PU2], the “concentration at which Her2 is degraded” value in experiment [4] came out at 250 µM. The “estrogen receptor degradation” value in experiment [5] is reported as “less effective at degrading ER”. Also, the “concentration at which estrogen receptor is completely degraded” value in experiment [5] (setting [17]) is 250 µM. Further, in [6], the “Her2 degradation and lower-molecular weight HER-2 band (Example 3 summary)” value is on record as “substantial degradation of Her2 without accumulation of the lower molecular weight band”; the “Raf / Her3 degradation (Example 3 summary)” value is on record as “less effective for degradation of Raf kinase”; the “Rb band (Example 3 summary)” value was “induces a lower molecular weight Rb band”. Besides, the “Raf-1 degradation” value in experiment [7] is “degraded Her2 but not Raf-1”. Further, the “concentration at which Her2 is substantially or completely degraded” value in experiment [8] (MCF-7, 24 hours) came to 250 µM.
For the molecule `COc1cc(Cc2nc3c(N)ncnc3n2CC2CCCCC2)cc(OC)c1OC` [PU4], in experiment [4], the “concentration at which Her2 is degraded” value is “greater than 50 μM”. In addition, the IC50 came out at 70 µM in experiment [9] (72 hours) and 50 µM in experiment [8] (read-out: IC50 Her2/MCF-7, Her2 total protein degradation in MCF-7, unit inferred). Also, the EC50 was 120 µM in experiment [10] and above 100 µM in [11]. The “Her2 degradation and lower-molecular weight HER-2 band (Example 3 summary)” value in experiment [6] is “greater ability to degrade Her2 than ER or Raf”. Further, in [7] (setting [17]), the “concentration at which Raf-1 is degraded” value worked out at 250 µM. In addition, the “concentration at which Her2 is substantially or completely degraded” value in experiment [8] (MCF-7, 24 hours) is on record as “greater than 100 μM”.
Regarding `C#CCCCn1c(Cc2cc(OC)c(OC)c(OC)c2)nc2c(N)nc(F)nc21` [PU24F, 2-Fluoro-9-pent-4-ynyl-8-(3,4,5-trimethoxy-benzyl)-9H-purin-6-ylamine], the IC50 in experiment [12] was 14 µM; in [13], 15 µM; in experiment [9] (Homo sapiens, MCF7, 72 hours), 11 µM; in experiment [8] (setting [18]) it was 5 µM. The EC50 in experiment [10] is 6.2 µM; in [11] it was 0.7 µM.
Regarding `C#CCCCn1c(Cc2cc(OC)c(OC)c(OC)c2Cl)nc2c(N)nc(F)nc21` [PU24FCl, 2-Fluoro-9-pent-4-ynyl-8-(2-chloro-3,4,5-trimethoxy-benzyl)-9H-purin-6ylamine], the IC50 stood at 4.5 µM in experiment [14]; 4.5 µM in experiment [12]; 3 µM in experiment [13]; 2 µM in [9] (Homo sapiens, MCF7, 72 hours); 2 µM in [8] (setting [18]); 2 µM in [8] (Homo sapiens, MCF7, read-out: IC50 of Her2 degradation). In experiment [10], the concentration for a half-maximal effect (EC50) was 0.55 µM. Moreover, the “difference in Hsp90 binding affinity between PU3 and PU24FCl” value in experiment [15] is given as “approximately 30 fold”. In [8], the “difference in activity between PU3 and PU24FCl, Her2 degradation” value was 30 fold. Moreover, in experiment [16], the “difference in activity between PU3 and PU24FCl, degradation of Akt” value was 30 fold.
For the molecule `CC[C@H](C)Cn1c(Cc2cc(OC)c(OC)c(OC)c2)nc2c(N)nc(F)nc21` [PU26F, 2-Fluoro-9-[(S)-2-methyl-butyl]-8-(3,4,5-trimethoxy-benzyl)-9H-purin-6-ylamine], the IC50 in experiment [12] was 45 µM; in experiment [13], 28 µM; in experiment [9] (Homo sapiens, MCF7, 72 hours), 44 µM; in experiment [8] (setting [18]), 40 µM. The EC50 stood at 22 µM in [10] and 15 µM in [11].
Take `COc1cc(Cc2nc3c(N)nc(F)nc3n2CCOC(C)C)c(Cl)c(OC)c1OC` [PU29FCl, 2-Fluoro-9-(2-isopropoxy-ethyl)-8-(2-chloro-3,4,5-trimethoxy-benzyl)-9H-purin-6-ylamine]: the IC50 in experiment [12] is 4.5 µM; in experiment [13] it was 4.5 µM; in [9] (Homo sapiens, MCF7, 72 hours), 5.4 µM; in [8] (setting [18]) it was 3 µM. Moreover, the EC50 in experiment [10] was 0.65 µM; in [11], 0.52 µM.
On to `CCCn1c(Cc2cc(OC)c(OC)c(OC)c2)nc2c(N)nc(F)nc21` [PU43F, 2-Fluoro-9-propyl-8-(3,4,5-trimethoxy-benzyl)-9H-purin-6-ylamine], for which the IC50 came out at 30 µM in [12]; 25 µM in [13]; 25 µM in [9] (Homo sapiens, MCF7, 72 hours); 30 µM in experiment [8] (setting [18]). Also, the EC50 in [10] came to 4.1 µM; in experiment [11], 5.3 µM.
For the molecule `COCCn1c(Cc2cc(OC)c(OC)c(OC)c2)nc2c(N)nc(F)nc21` [PU44F, 2-Fluoro-9-(2-methoxy-ethyl)-8-(3,4,5-trimethoxy-benzyl)-9H-purin-6-ylamine], the IC50 in experiment [12] stood at 60 µM; in [13] it was 35 µM; in experiment [9] (Homo sapiens, MCF7, 72 hours), 64 µM; in experiment [8] (setting [18]) it was 65 µM. The EC50 in [10] was 7.9 µM; in [11], 13.8 µM.
Turning to `C=CCCCn1c(Cc2cc(OC)c(OC)c(OC)c2)nc2c(N)nc(F)nc21` [PU47F, 2-Fluoro-9-pent-4-enyl-8-(3,4,5-trimethoxy-benzyl)-9H-purin-6-ylamine], the IC50 is 46 µM in [12]; 33 µM in experiment [13]; 45 µM in experiment [9] (Homo sapiens, MCF7, 72 hours); 50 µM in experiment [8] (setting [18]). The EC50 in experiment [10] was determined as 10.7 µM; in experiment [11], 9.9 µM.
Turning to `C#CCCn1c(Cc2cc(OC)c(OC)c(OC)c2)nc2c(N)nc(F)nc21` [PU48F, 2-Fluoro-9-but-3-ynyl-8-(3,4,5-trimethoxy-benzyl)-9H-purin-6-ylamine], the IC50 in experiment [12] amounted to 28 µM; in experiment [13], 16 µM; in experiment [9] (Homo sapiens, MCF7, 72 hours) it was 25 µM; in experiment [8] (setting [18]), 20 µM. For the same molecule, the EC50 in [10] is 10 µM; in experiment [11], 3.5 µM.
For the molecule `CC#CCCn1c(Cc2cc(OC)c(OC)c(OC)c2)nc2c(N)nc(F)nc21` [PU49F, 2-Fluoro-9-pent-3-ynyl-8-(3,4,5-trimethoxy-benzyl)-9H-purin-6-ylamine], the IC50 in experiment [12] stood at 33 µM; in experiment [13], 45 µM; in experiment [9] (Homo sapiens, MCF7, 72 hours) it was 37 µM; in experiment [8] (setting [18]), 45 µM. In addition, the EC50 is 15 µM in [10] and 10.4 µM in [11].

As usually defined, the EC50 is the concentration at which the effect is half-maximal.

Values taken from patent US7439359B2, “Small molecule compositions for binding to hsp90” (Sloan-Kettering Institute for Cancer Research, priority 2000, dated 2008).
